From PubChem BioAssay (NCI) come the findings set out here.

Where “and” joins values, the source holds several entries; their conditions need not be identical. Equal entries are not always repeated.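 These data come from cells grown in 96-well plates and exposed to compound for 48 hours at five concentrations. Here, GI50 denotes the concentration required for 50% inhibition of growth. The concentration for full growth arrest is given as TGI.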

Among the test systems are HS 578T breast; RPMI-8226 leukemia; HL-60(TB) leukemia; MDA-MB-435; CAKI-1 renal; NCI-H460 lung; MOLT-4 leukemia; HT29 colon; 786-0 renal; HCC-2998 colon.
Experiment in all cases: DTP human tumour cell line panel, 48 h

For the compound `CN(C)c1ccc(C(=C2C=CC(=[N+](C)C)C=C2)c2ccc(N(C)C)cc2)cc1`, the GI50 (in general, the concentration that inhibits growth by half) was 0.0875 µM in the test on HS 578T breast; 0.0358 µM with RPMI-8226 leukemia; 0.16 µM with HL-60(TB) leukemia; 0.152 µM in the test with MDA-MB-435; 0.249 µM in the test with CAKI-1 renal; 0.297 µM with MOLT-4 leukemia. Besides, the GI50 in the test on HT29 colon is 0.0363 µM; in the test on 786-0 renal it was 0.187 µM; with HCC-2998 colon it was 0.194 µM. In addition, the TGI (commonly the concentration at which net growth stops) with HS 578T breast was 2.82 µM; with RPMI-8226 leukemia it was 0.165 µM and 0.163 µM; in the test with HL-60(TB) leukemia, 0.493 µM and 0.173 µM; in the test on MDA-MB-435, 0.431 µM; with CAKI-1 renal it was 0.788 µM and 2.43 µM; in the test with NCI-H460 lung, 1.55 µM. For the same compound, the TGI was 2.41 µM and 0.543 µM in the test on MOLT-4 leukemia; 0.158 µM in the test on HT29 colon; 0.709 µM and 1.17 µM in the test with 786-0 renal; 1.17 µM and 0.934 µM in the test on HCC-2998 colon.

Consider `Clc1nc(Cl)c(-c2ccccc2)c(Cl)n1`, for which the TGI in the test on HS 578T breast is greater than 100 µM; in the test on RPMI-8226 leukemia, 6.16 µM; in the test on HL-60(TB) leukemia, 4.77 µM; in the test on MDA-MB-435 it was 9.55 µM; with CAKI-1 renal, 3.33 µM; with NCI-H460 lung it was 35.9 µM. The TGI is greater than 100 µM in the test with MOLT-4 leukemia, 49.3 µM in the test with HT29 colon, 6.55 µM in the test on 786-0 renal and 5.32 µM with HCC-2998 colon.

Turning to `COc1cc(C2CC(c3ccc(N(C)C)cc3)=NN2C(C)=O)cc(OC)c1OC` (centres undefined), the GI50 is 0.441 µM in the test with HS 578T breast; 3.77 µM in the test on RPMI-8226 leukemia; 7.94 µM in the test with HL-60(TB) leukemia; 0.231 µM in the test with MDA-MB-435; 0.801 µM with CAKI-1 renal; 1.41 µM in the test on NCI-H460 lung. The GI50 is 12.8 µM in the test with MOLT-4 leukemia, 0.909 µM in the test on HT29 colon, 2.36 µM with 786-0 renal and 2.61 µM in the test with HCC-2998 colon. Further, the total growth inhibition concentration (TGI) was 3.03 µM in the test with HS 578T breast; greater than 39.3 µM in the test on RPMI-8226 leukemia; greater than 25.1 µM in the test with HL-60(TB) leukemia; 1.18 µM in the test on MDA-MB-435; greater than 100 µM in the test with CAKI-1 renal; greater than 100 µM in the test with NCI-H460 lung. For the same compound, the TGI with MOLT-4 leukemia was greater than 100 µM; in the test on HT29 colon it was greater than 39.5 µM; in the test on 786-0 renal, greater than 78 µM; with HCC-2998 colon it was 27.1 µM.

For `CC(C)N1C(NNC(=O)c2cnccn2)=NS(=O)(=O)c2ccccc21`, the GI50 in the test on HS 578T breast, in the test with RPMI-8226 leukemia, in the test on HL-60(TB) leukemia, with MDA-MB-435, in the test on CAKI-1 renal and in the test on NCI-H460 lung was greater than 100 µM throughout. Further, the GI50 with MOLT-4 leukemia, with HT29 colon, in the test with 786-0 renal and in the test on HCC-2998 colon was greater than 100 µM throughout. In addition, the TGI in the test on HS 578T breast, in the test on RPMI-8226 leukemia, with HL-60(TB) leukemia, with MDA-MB-435, in the test with CAKI-1 renal and in the test on NCI-H460 lung was greater than 100 µM in each case. Also, the total growth inhibition concentration (TGI) in the test with MOLT-4 leukemia, with HT29 colon, in the test with 786-0 renal and in the test on HCC-2998 colon was greater than 100 µM in each case.

As for `COc1cc2c3c(n(C)c(=O)c2cc1OC)-c1cc2c(cc1/C3=C\C(N)CN)OCO2` (centres undefined), the GI50 with HS 578T breast is 4.2 µM; in the test on RPMI-8226 leukemia, 6.43 µM; with HL-60(TB) leukemia it was 8.69 µM; with MDA-MB-435 it was 2.56 µM; with CAKI-1 renal, 2.27 µM; in the test on NCI-H460 lung, 1.5 µM. The 50% growth inhibitory concentration (GI50) in the test with MOLT-4 leukemia was 0.125 µM; in the test with HT29 colon, 2.61 µM; in the test with 786-0 renal it was 1.27 µM; in the test on HCC-2998 colon, 3.22 µM. The TGI was 41.4 µM in the test on HS 578T breast; 26.1 µM in the test on RPMI-8226 leukemia; greater than 100 µM with HL-60(TB) leukemia; 17.3 µM with MDA-MB-435; 10.4 µM in the test with CAKI-1 renal; 7.58 µM with NCI-H460 lung. Further, the TGI in the test with MOLT-4 leukemia is greater than 40.7 µM; in the test with HT29 colon, greater than 100 µM; in the test on 786-0 renal, 9.92 µM; in the test on HCC-2998 colon it was 50 µM.

For the compound `CCNCCNc1cc(C2CCCCC2)c(C#N)c2nc3ccccc3n12`, the GI50 in the test on HS 578T breast is 2.4 µM; with RPMI-8226 leukemia it was 2.11 µM; in the test on HL-60(TB) leukemia, 1.46 µM; with MDA-MB-435, 1.73 µM; with CAKI-1 renal, 1.82 µM; in the test with NCI-H460 lung, 1.78 µM. Also, the GI50 is 2.04 µM in the test on MOLT-4 leukemia, 1.73 µM in the test with HT29 colon, 1.57 µM in the test on 786-0 renal and 2.53 µM in the test with HCC-2998 colon. Also, the TGI with HS 578T breast was determined as 5.42 µM; in the test on RPMI-8226 leukemia it was 5.02 µM; with HL-60(TB) leukemia, 3.49 µM; with MDA-MB-435 it was 3.4 µM; in the test on CAKI-1 renal, 3.91 µM; with NCI-H460 lung it was 3.28 µM. Moreover, the TGI with MOLT-4 leukemia worked out at 4.97 µM; with HT29 colon it was 3.82 µM; with 786-0 renal, 3.04 µM; in the test with HCC-2998 colon it was 6.79 µM.

As for `c1ccc(CSc2nnc3c4ccccc4c4ccccc4c3n2)cc1`, the TGI in the test on HS 578T breast, in the test with RPMI-8226 leukemia, in the test on HL-60(TB) leukemia, with MDA-MB-435, in the test on CAKI-1 renal and in the test on NCI-H460 lung was greater than 100 µM in each case. The TGI with MOLT-4 leukemia was greater than 100 µM; in the test on HT29 colon, greater than 100 µM; in the test with 786-0 renal, greater than 92.5 µM; with HCC-2998 colon it was greater than 100 µM.

Turning to `COC(=O)C(F)C(Br)C(=O)OC` (centres undefined), the TGI in the test with HS 578T breast was found to be 68.6 µM; in the test with RPMI-8226 leukemia, 3.88 µM; in the test on HL-60(TB) leukemia, 3.93 µM; in the test on MDA-MB-435, 27.3 µM; in the test with CAKI-1 renal it was 5.17 µM; in the test with NCI-H460 lung, 39.3 µM. For the same compound, the TGI is 3.01 µM in the test with MOLT-4 leukemia, 5.43 µM with HT29 colon, 6.03 µM in the test with 786-0 renal and 21 µM with HCC-2998 colon.

As to `O=C(OCCBr)c1ccc(Cl)c([N+](=O)[O-])c1`, the GI50 in the test on HS 578T breast is 3.13 µM; in the test with RPMI-8226 leukemia, 7.09 µM; in the test with HL-60(TB) leukemia, 15.7 µM; with MDA-MB-435, 15.5 µM; with CAKI-1 renal it was 7.78 µM; in the test on NCI-H460 lung, 14.9 µM. In addition, the GI50 in the test on MOLT-4 leukemia was 23.7 µM; with HT29 colon it was 2.51 µM; in the test on 786-0 renal, 18.6 µM; with HCC-2998 colon, 1.91 µM. Further, the TGI is greater than 26.4 µM in the test on HS 578T breast; 19 µM in the test on RPMI-8226 leukemia; 42.6 µM with HL-60(TB) leukemia; 30.9 µM in the test on MDA-MB-435; 23.1 µM in the test with CAKI-1 renal; 33.5 µM in the test on NCI-H460 lung. In addition, the TGI in the test on MOLT-4 leukemia came out at 55.3 µM; in the test on HT29 colon, 5.14 µM; in the test with 786-0 renal, 34.1 µM; in the test with HCC-2998 colon it was 3.67 µM.
